Results taken from patent US20070155772A1, “Use of genetic polymorphisms that associate with efficacy of treatment of inflammatory disease” (priority 2003, published 2007).
Values joined by “and” are separate entries in the source; they are usually repeats but may differ in a detail not shown here. Equal entries are not always repeated.

Experiments:
[1] = system: pediatric subjects with moderate atopic dermatitis; assay: Phase IIIb trial, efficacy by Investigator global assessment (IGA) score on day 43; assay type: in vivo, human; conditions: for Efficacy (IGA): number of patients that experienced efficacy / Efficacy (IGA): percent of patients that experienced efficacy: IGA score of 0 or 1 on day 43
From the text: The genetic locus was identified in a Phase IIIb trial that was designed as a head to head comparison of pimecrolimus cream 1% and tacrolimus ointment 0.03%. The six-week investigator-blinded trial of pediatric subjects with moderate atopic dermatitis explored the incidence of local application site reactions induced by the two topical macrolactams, as well as their efficacy, safety and cosmetic acceptability. Blood samples for pharmacogenetic analysis were collected from consenting participants in the clinical trial, to define a genetic basis for response to either treatment. Statistical analysis. Investigator global assessment (IGA) scores were used as the primary marker of efficacy in the pharmacogenetic studies. IGA scores at the end of the Investigator Blinded phase of the trial (Day 43) were used as the main time-point for comparison. Last observation carried forward imputations were only required for one subject at day 43. In this case, there was no IGA score available after Day 29, and the score on this day was used in place of a day 43 IGA score. IGA scores were re-coded, as was done to assess efficacy in the trial itself. An IGA score of 0 or 1 was considered successful treatment and IGA scores of 2-5 were counted as treatment failure. The severity of pruritus was also used as a marker of efficacy. Pruritus scores were dichotomized into absence (score=0) or presence (score=1, 2 or 3) of pruritus. The fisher's exact model was employed to examine the genotype effect on each efficacy variable. All statistical analyses were done using SAS version 8.2 software.

[2] = system: pediatric subjects with moderate atopic dermatitis; assay: Phase IIIb trial, severity of pruritus score on day 43; assay type: in vivo, human
From the text: The genetic locus was identified in a Phase IIIb trial that was designed as a head to head comparison of pimecrolimus cream 1% and tacrolimus ointment 0.03%. The six-week investigator-blinded trial of pediatric subjects with moderate atopic dermatitis explored the incidence of local application site reactions induced by the two topical macrolactams, as well as their efficacy, safety and cosmetic acceptability. Blood samples for pharmacogenetic analysis were collected from consenting participants in the clinical trial, to define a genetic basis for response to either treatment.
Statistical analysis. Investigator global assessment (IGA) scores were used as the primary marker of efficacy in the pharmacogenetic studies. IGA scores at the end of the Investigator Blinded phase of the trial (Day 43) were used as the main time-point for comparison. Last observation carried forward imputations were only required for one subject at day 43. In this case, there was no IGA score available after Day 29, and the score on this day was used in place of a day 43 IGA score. IGA scores were re-coded, as was done to assess efficacy in the trial itself. An IGA score of 0 or 1 was considered successful treatment and IGA scores of 2-5 were counted as treatment failure. The severity of pruritus was also used as a marker of efficacy. Pruritus scores were dichotomized into absence (score=0) or presence (score=1, 2 or 3) of pruritus. The fisher's exact model was employed to examine the genotype effect on each efficacy variable. All statistical analyses were done using SAS version 8.2 software.
Association between polymorphic markers and relief from pruritus. A secondary efficacy variable used in the trial was pruritus. An analysis was done to see if ASN60THR LTA and (−1031) TNF associated with this efficacy variable (assessed on day 43).

[3] = (−1031) TNF genotype CC, day 43
[4] = (−1031) TNF genotype CT, day 43
[5] = (−1031) TNF genotype TT, day 43
[6] = ASN60THR LTA genotype AA, day 43
[7] = ASN60THR LTA genotype AC, day 43
[8] = ASN60THR LTA genotype CC, day 43
[9] = VAL63ILE CCR2 (TWT# 47987) genotype AG, day 43
[10] = VAL63ILE CCR2 (TWT# 47987) genotype GG, day 43
[11] = all (−1031) TNF genotypes, day 43
[12] = all ASN60THR LTA genotypes, day 43
[13] = all VAL63ILE CCR2 genotypes, day 43

## C=CC[C@@H]1/C=C(\C)C[C@H](C)C[C@H](OC)[C@H]2O[C@@](O)(C(=O)C(=O)N3CCCC[C@H]3C(=O)O[C@H](/C(C)=C/[C@@H]3CC[C@@H](O)[C@H](OC)C3)[C@H](C)[C@@H](O)CC1=O)[C@H](C)C[C@@H]2OC [tacrolimus]
[1]; [3]
  No success (IGA ≧ 2), number of individuals: 1
  No success (IGA ≧ 2), percent: 50%
  Success (IGA = 0 or 1), number of individuals: 1
  Success (IGA = 0 or 1), percent: 50%
[1]; [4]
  No success (IGA ≧ 2), number of individuals: 2
  No success (IGA ≧ 2), percent: 40%
  Success (IGA = 0 or 1), number of individuals: 3
  Success (IGA = 0 or 1), percent: 60%
[1]; [5]
  No success (IGA ≧ 2), number of individuals: 8
  No success (IGA ≧ 2), percent: 47%
  Success (IGA = 0 or 1), number of individuals: 9
  Success (IGA = 0 or 1), percent: 53%
[1]; [6]
  No success (IGA ≧ 2), number of individuals: 3
  No success (IGA ≧ 2), percent: 43%
  Success (IGA = 0 or 1), number of individuals: 4
  Success (IGA = 0 or 1), percent: 57%
[1]; [7]
  No success (IGA ≧ 2), number of individuals: 4
  No success (IGA ≧ 2), percent: 40%
  Success (IGA = 0 or 1), number of individuals: 6
  Success (IGA = 0 or 1), percent: 60%
[1]; [8]
  No success (IGA ≧ 2), number of individuals: 4
  No success (IGA ≧ 2), percent: 57%
  Success (IGA = 0 or 1), number of individuals: 3
  Success (IGA = 0 or 1), percent: 42%
[1]; LTB (TWT#128095) genotype AC
  No success (IGA ≧ 2), number of individuals: 3
  No success (IGA ≧ 2), percent: 60%
  Success (IGA = 0 or 1), number of individuals: 2
  Success (IGA = 0 or 1), percent: 40%
[1]; LTB (TWT#128095) genotype CC
  No success (IGA ≧ 2), number of individuals: 8
  No success (IGA ≧ 2), percent: 44%
  Success (IGA = 0 or 1), number of individuals: 10
  Success (IGA = 0 or 1), percent: 56%
[1]; Pharmacogenomics samples
  Efficacy (IGA): number of patients that experienced efficacy: 13
  Efficacy (IGA): percent of patients that experienced efficacy: 52%
[1]; Trial subjects
  Efficacy (IGA): number of patients that experienced efficacy: 27
  Efficacy (IGA): percent of patients that experienced efficacy: 40%
[1]; [9]
  No success (IGA ≧ 2), number of individuals: 2
  No success (IGA ≧ 2), percent: 20%
  Success (IGA = 0 or 1), number of individuals: 8/10 and 8
  Success (IGA = 0 or 1), percent: 80%
[1]; [10]
  No success (IGA ≧ 2), number of individuals: 9
  No success (IGA ≧ 2), percent: 69%
  Success (IGA = 0 or 1), number of individuals: 4/13 and 4
  Success (IGA = 0 or 1), percent: 31%
[1]; [11]
  No success (IGA ≧ 2), number of individuals, Total: 11
  Success (IGA = 0 or 1), number of individuals, Total: 13
[1]; [12]
  No success (IGA ≧ 2), number of individuals, Total: 11
  Success (IGA = 0 or 1), number of individuals, Total: 13
[1]; all LTB (TWT#128095) genotypes
  No success (IGA ≧ 2), number of individuals, Total: 11
  Success (IGA = 0 or 1), number of individuals, Total: 12
[1]; [13]
  No success (IGA ≧ 2), number of individuals, Total: 11
  Success (IGA = 0 or 1), number of individuals, Total: 12
[2]; Pharmacogenomics samples
  Pruritus (day 43) score 0, number of subjects: 5
  Pruritus (day 43) score 0, percent of subjects: 20%
  Pruritus (day 43) score 1, number of subjects: 10
  Pruritus (day 43) score 1, percent of subjects: 40%
  Pruritus (day 43) score 2, number of subjects: 7
  Pruritus (day 43) score 2, percent of subjects: 28%
  Pruritus (day 43) score 3, number of subjects: 3
  Pruritus (day 43) score 3, percent of subjects: 12%
[2]; Trial subjects
  Pruritus (day 43) score 0, number of subjects: 11
  Pruritus (day 43) score 0, percent of subjects: 16%
  Pruritus (day 43) score 1, number of subjects: 35
  Pruritus (day 43) score 1, percent of subjects: 50%
  Pruritus (day 43) score 2, number of subjects: 19
  Pruritus (day 43) score 2, percent of subjects: 27%
  Pruritus (day 43) score 3, number of subjects: 3
  Pruritus (day 43) score 3, percent of subjects: 4%
